Broadly, the IC50 is the concentration that inhibits the measured activity by half.

Our source for the IC50 values is patent US6916933B2, “4-pyridinyl-n-acyl-l-phenylalanines” (Hoffman-La Roche Inc., priority 1999, dated 2005).

Experiment [1] concerns the target T1, VLA-4 (α4β1 integrin) binding to immobilized VCAM-1 (Homo sapiens, UniProt P05556+P13612).
T1 construct: followed by 10 μl of Ramos cell-derived VLA-4; endogenous in cells; host or cells: Ramos cells (VLA-4 preparation derived from the cells)
Kind of experiment: VLA-4/VCAM-1 Screening Assay (solid-phase, dual antibody ELISA). The following applies: Ramos cell-derived VLA-4, recombinant human VCAM-1 coated plates, 1 mM MnCl2. How it is done: VLA-4/VCAM-1 Screening Assay
VLA-4 antagonist activity, defined as ability to compete for binding to immobilized VCAM-1, was quantitated using a solid-phase, dual antibody ELISA. VLA-4 (α4β1 integrin) bound to VCAM-1 was detected by a complex of anti-integrin β1 antibody: HRP-conjugated anti-mouse IgG: chromogenic substrate (K-Blue). Initially, this entailed coating 96 well plates (Nunc Maxisorp) with recombinant human VCAM-1 (0.4 μg in 100 μl PBS), sealing each plate and then allowing the plates to stand at 4° C. for ^˜18 hr. […] On the day of assay, all plates were washed twice with VCAM Assay Buffer (200 μl/well of 50 mM Tris-HCl, 100 mM NaCl, 1 mM MnCl2, 0.05% Tween 20; pH 7.4). Test compounds were dissolved in 100% DMSO and then diluted 1:20 in VCAM Assay Buffer supplemented with 1 mg/mL BSA (i.e., final DMSO=5%). A series of 1:4 dilutions were performed to achieve a concentration range of 0.005 nM-1.563 μM for each test compound. 100 μl per well of each dilution was added to the VCAM-coated plates, followed by 10 μl of Ramos cell-derived VLA-4. These plates were sequentially mixed on a platform shaker for 1 min, incubated for 2 hr at 37° C., and then washed four times with 200 μl/well VCAM Assay Buffer. 100 μl of mouse anti-human integrin β1 antibody was added to each well (0.6 μg/mL in VCAM Assay Buffer+1 mg/mL BSA) and allowed to incubate for 1 hr at 37° C. At the conclusion of this incubation period, all plates were washed four times with VCAM Assay Buffer (200 μl/well). A corresponding second antibody, HRP-conjugated goat anti-mouse IgG (100 μl per well @ 1:800 dilution in VCAM Assay Buffer+1 mg/mL BSA), was then added to each well, followed by a 1 hr incubation at room temperature and concluded by three washes (200 μl/well) with VCAM Assay Buffer. Color development was initiated by addition of 100 μl K-Blue per well (15 min incubation, room temp) and terminated by addition of 100 μl Red Stop Buffer per well. All plates were then read in a UV/V is spectrophotometer at 650 nM. Results were calculated as % inhibition of total binding (i.e., VLA-4+VCAM-1 in the absence of test compound).
The results are provided in the following Table I (A=IC50<1 nM, B=IC50<10 nM): […]
For orientation: ELISA stands for enzyme-linked immunosorbent assay.

Experiment [2] addresses T2, cell-surface VLA-4 (α4β1 integrin) on Ramos cells binding to immobilized VCAM-1 (Homo sapiens, UniProt P05556+P13612).
T2 construct: Ramos cells bearing cell-surface VLA-4; endogenous in cells; host or cells: Ramos cells (VLA-4); VCAM-1 partner made in CHO cells
The experiment in a line: Ramos (VLA-4)/VCAM-1 Cell-Based Screening Assay (cell adhesion). Particulars: Calcein-AM labeled Ramos cells, VCAM-1 coated plates. As for the experimental part: Ramos (VLA-4)/VCAM-1 Cell-Based Screening Assay Protocol
Soluble recombinant human VCAM-1 (mixture of 5- and 7-Ig domain) was purified from CHO cell culture media by immunoaffinity chromatography and maintained in a solution containing 0.1 M Tris-glycine (pH 7.5), 0.1 M NaCl, 5 mM EDTA, 1 mM PMSF, […] NaN3 and 10 μg/mL leupeptin. Calcein-AM was purchased from Molecular Probes Inc.
VLA-4 (α4β1 integrin) antagonist activity, defined as ability to compete with cell-surface VLA-4 for binding to immobilized VCAM-1, was quantitated using a Ramos-VCAM-1 cell adhesion assay. Ramos cells bearing cell-surface VLA-4, were labeled with a fluorescent dye (Calcein-AM) and allowed to bind VCAM-1 in the presence or absence of test compounds. A reduction in fluorescence intensity associated with adherent cells (% inhibition) reflected competitive inhibition of VLA-4 mediated cell adhesion by the test compound.
Initially, this entailed coating 96 well plates (Nunc Maxisorp) with recombinant human VCAM-1 (100 ng in 100 μl PBS), sealing each plate and allowing the plates to stand at 4° C. for ≈18 hr. The VCAM-coated plates were subsequently washed twice with 0.05% Tween-20 in PBS, and then blocked for 1 hr (room temperature) with 200 μl of Blocking Buffer (1% BSA/0.02% thimerosal) to reduce non-specific binding. Following the incubation with Blocking Buffer, plates were inverted, blotted and the remaining buffer aspirated. Each plate was then washed with 300 μl PBS, inverted and the remaining PBS aspirated.
Test compounds were dissolved in 100% DMSO and then diluted 1:25 in VCAM Cell Adhesion Assay Buffer (4 mM CaCl2, 4 mM MgCl2 in 50 mM TRIS-HCl, pH 7.5) (final DMSO=4%). A series of eight 1:4 dilutions were performed for each compound (general concentration range of 1 nM-12,500 nM). 100 μl/well of each dilution was added to the VCAM-coated plates, followed by 100 μl of Ramos cells (200,000 cells/well in 1% BSA/PBS). Plates containing test compounds and Ramos cells were allowed to incubate for 45 min at room temperature, after which 165 μl/well PBS was added. Plates were inverted to remove non-adherent cells, blotted and 300 μL/well PBS added. Plates were again inverted, blotted and the remaining buffer gently aspirated. 100 μl Lysis Buffer (0.1% SDS in 50 mM TRIS-HCl, pH 8.5) was added to each well and agitated for 2 min on a rotary shaking platform. The plates were then read for fluorescence intensity on a Cytofluor 2300 (Millipore) fluorecence measurement system (excitation=485 nm, emission=530 nm).
The results are provided in the following Table II (A=IC50<100 nM, B=IC50<10000 nM, C=IC50<5,000 nM): […]

T1 sequence (P13612 34-1032): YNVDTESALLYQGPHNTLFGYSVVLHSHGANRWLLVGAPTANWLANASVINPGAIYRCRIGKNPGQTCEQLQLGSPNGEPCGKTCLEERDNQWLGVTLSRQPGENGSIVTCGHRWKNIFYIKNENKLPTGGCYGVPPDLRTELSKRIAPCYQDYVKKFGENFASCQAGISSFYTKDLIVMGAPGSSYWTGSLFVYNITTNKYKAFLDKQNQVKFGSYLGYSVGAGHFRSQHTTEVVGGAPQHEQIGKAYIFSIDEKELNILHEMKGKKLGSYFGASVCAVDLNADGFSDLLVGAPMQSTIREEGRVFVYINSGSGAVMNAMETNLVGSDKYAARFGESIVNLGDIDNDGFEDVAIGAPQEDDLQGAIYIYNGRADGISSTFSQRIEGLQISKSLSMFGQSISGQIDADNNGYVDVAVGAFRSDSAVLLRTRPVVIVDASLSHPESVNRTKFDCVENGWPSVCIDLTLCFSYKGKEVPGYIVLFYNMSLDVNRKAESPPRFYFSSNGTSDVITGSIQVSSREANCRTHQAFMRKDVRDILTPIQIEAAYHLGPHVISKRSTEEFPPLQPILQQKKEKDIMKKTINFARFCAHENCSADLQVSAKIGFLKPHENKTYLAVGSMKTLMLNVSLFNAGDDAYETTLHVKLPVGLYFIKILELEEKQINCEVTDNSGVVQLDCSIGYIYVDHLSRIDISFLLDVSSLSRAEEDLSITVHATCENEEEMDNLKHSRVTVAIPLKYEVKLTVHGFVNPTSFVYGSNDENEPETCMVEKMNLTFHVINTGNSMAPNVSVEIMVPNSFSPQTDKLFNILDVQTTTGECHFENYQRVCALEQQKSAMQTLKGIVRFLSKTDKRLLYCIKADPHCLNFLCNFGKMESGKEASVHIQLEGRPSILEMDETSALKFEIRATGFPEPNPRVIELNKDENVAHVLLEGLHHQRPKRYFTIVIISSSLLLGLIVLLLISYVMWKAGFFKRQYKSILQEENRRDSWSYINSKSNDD
T1 sequence (P05556 21-798): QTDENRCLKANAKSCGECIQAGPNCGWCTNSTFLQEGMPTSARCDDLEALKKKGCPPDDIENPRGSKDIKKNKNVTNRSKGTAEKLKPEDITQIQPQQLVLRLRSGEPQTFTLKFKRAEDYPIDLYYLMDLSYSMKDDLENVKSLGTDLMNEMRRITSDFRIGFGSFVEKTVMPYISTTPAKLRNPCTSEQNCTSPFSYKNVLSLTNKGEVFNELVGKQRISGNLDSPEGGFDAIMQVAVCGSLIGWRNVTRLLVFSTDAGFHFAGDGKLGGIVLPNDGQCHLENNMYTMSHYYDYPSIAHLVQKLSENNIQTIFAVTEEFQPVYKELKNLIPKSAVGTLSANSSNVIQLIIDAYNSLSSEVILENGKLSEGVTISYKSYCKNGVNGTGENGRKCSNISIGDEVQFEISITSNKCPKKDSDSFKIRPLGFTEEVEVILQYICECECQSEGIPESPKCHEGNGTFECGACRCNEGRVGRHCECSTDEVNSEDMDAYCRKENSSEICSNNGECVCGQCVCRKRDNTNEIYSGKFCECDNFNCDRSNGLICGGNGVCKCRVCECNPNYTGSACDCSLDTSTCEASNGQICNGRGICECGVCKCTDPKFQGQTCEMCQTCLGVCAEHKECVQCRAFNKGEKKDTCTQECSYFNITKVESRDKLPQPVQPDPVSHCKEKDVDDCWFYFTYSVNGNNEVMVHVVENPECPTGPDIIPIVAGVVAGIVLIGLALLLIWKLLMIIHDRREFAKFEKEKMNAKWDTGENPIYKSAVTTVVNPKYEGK
T2 sequence (P13612 34-1032): as the sequence (P13612 34-1032) above
T2 sequence (P05556 21-798): as the sequence (P05556 21-798) above

Regarding `COCCC1(C(=O)N[C@@H](Cc2ccc(-c3cc(Cl)cn(C)c3=O)cc2)C(=O)O)CCCC1` [Example 10, 4-(5-chloro-1-methyl-2-oxo-3-pyridinyl)-N-[[1-(2-methoxyethyl)cyclopentyl]carbonyl]-L-phenylalanine], the IC50 is below 10 nM in experiment [1] and below 10000 nM in experiment [2].
On to `COCCC1(C(=O)N[C@@H](Cc2ccc(-c3cc(Cl)cn(Cc4ccccc4)c3=O)cc2)C(=O)O)CCCC1` [Example 17, 4-(1-Benzyl-5-chloro-2-oxo-3-pyridinyl)-N-[[1-(2-methoxyethyl)cyclopentyl]carbonyl]-L-phenylalanine], for which the IC50 in experiment [1] is below 10 nM.
On to `Cc1cccc(Cl)c1C(=O)N[C@@H](Cc1ccc(-c2cc(Cl)cn(C)c2=O)cc1)C(=O)O` [Example 8, N-[(2-chloro-6-methylphenyl)carbonyl]-4-(5-chloro-1-methyl-2-oxo-3-pyridinyl)-L-phenylalanine], for which the IC50 in experiment [1] was below 1 nM; in experiment [2] it was below 10000 nM.
For `COc1ccc(Br)c(C(=O)N[C@@H](Cc2ccc(-c3cccn(C)c3=O)cc2)C(=O)O)c1` [Example 24, N-[(2-bromo-5-methoxyphenyl)carbonyl]-4-(1-methyl-2-oxo-3-pyridinyl)-L-phenylalanine], in that order: below 1 nM and below 10000 nM.
As to `COc1ccc(Br)c(C(=O)N[C@@H](Cc2ccc(-c3cc(Br)cn(C)c3=O)cc2)C(=O)O)c1` [Example 28, N-[(2-bromo-5-methoxyphenyl)carbonyl]-4-(5-bromo-1-methyl-2-oxo-3-pyridinyl)-L-phenylalanine], the IC50 in experiment [1] is below 1 nM; in experiment [2], below 5000 nM.
On to `Cc1cccc(Cl)c1C(=O)N[C@@H](Cc1ccc(-c2cc(Cl)cn(Cc3ccccc3)c2=O)cc1)C(=O)O` [Example 15, 4-(1-Benzyl-5-chloro-2-oxo-3-pyridinyl)-N-[(2-chloro-6-methylphenyl)carbonyl]-L-phenylalanine], for which the IC50 in experiment [1] is below 10 nM; in experiment [2], below 5000 nM.
